Several values for one entry are separate records, joined by “and”; a condition that tells them apart may be missing. Equal entries are not always repeated.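 Cultured in 96-well plates, cells were exposed to test compound for 48 hours across five concentrations. GI50 = concentration required for 50% inhibition of growth. At the TGI there is no net growth.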

Some test systems named below: A549 NSCLC; BT-549 breast; EKVX NSCLC; HCC-2998 colon; HCT-116 colon; HL-60(TB) leukemia; M14 melanoma; NCI-H522 lung; RPMI-8226 leukemia; UACC-257 melanoma.
Common to all, as to assay: DTP human tumour cell line panel, 48 h

With `C=C1/C(=C\C=C2/CCC[C@]3(C)[C@@H]([C@H](C)CCCC(C)(C)O)CC[C@@H]23)C[C@@H](OC(=O)CBr)C[C@@H]1O`, the GI50 was 6.26 µM with A549 NSCLC; 1.96 µM in the assay with BT-549 breast; 3.17 µM in the assay on EKVX NSCLC; 13.6 µM in the assay on HCC-2998 colon; 2.22 µM with HCT-116 colon; 0.3 µM in the assay on HL-60(TB) leukemia. The GI50 in the assay on M14 melanoma is 2.71 µM; in the assay on NCI-H522 lung, 0.255 µM; with RPMI-8226 leukemia, 0.293 µM; in the assay with UACC-257 melanoma, 9.84 µM. Besides, the TGI with A549 NSCLC was found to be 31.5 µM; in the assay with BT-549 breast, 4.36 µM; in the assay on EKVX NSCLC, 19.5 µM; in the assay with HCC-2998 colon, 27.5 µM; with HCT-116 colon, 5.9 µM; in the assay with HL-60(TB) leukemia, 1.09 µM. The TGI in the assay on M14 melanoma amounted to 8.74 µM; in the assay on NCI-H522 lung, 0.83 µM; with RPMI-8226 leukemia, 2.48 µM; with UACC-257 melanoma, 26.8 µM.

Turning to `COc1ccc(C2CC(C)(O)Oc3cc4c(cc32)OCO4)cc1` (stereo not drawn), the TGI in the assay with A549 NSCLC is more than 100 µM; in the assay with BT-549 breast, more than 88 µM; in the assay on EKVX NSCLC, more than 100 µM; in the assay with HCC-2998 colon, more than 100 µM; with HCT-116 colon it was more than 100 µM; in the assay on HL-60(TB) leukemia it was 68.4 µM. In addition, the TGI is more than 87.8 µM with M14 melanoma, 44.6 µM in the assay on NCI-H522 lung, more than 100 µM in the assay on RPMI-8226 leukemia and more than 100 µM in the assay with UACC-257 melanoma.

Take `COc1cccc(-n2nc(C)c3c(N/N=C(\C)c4ccncc4)ncnc32)c1`: the GI50 in the assay with A549 NSCLC is more than 25 µM; with BT-549 breast it was more than 21.9 µM; in the assay with EKVX NSCLC it was more than 25 µM; in the assay with HCC-2998 colon, more than 25 µM; in the assay on HCT-116 colon, more than 24.2 µM; in the assay with HL-60(TB) leukemia it was more than 25 µM. The GI50 in the assay with M14 melanoma, in the assay with NCI-H522 lung, in the assay on RPMI-8226 leukemia and with UACC-257 melanoma was more than 25 µM each time. Moreover, the TGI with A549 NSCLC, in the assay on BT-549 breast, with EKVX NSCLC, with HCC-2998 colon, with HCT-116 colon and in the assay on HL-60(TB) leukemia was more than 25 µM each time. In addition, the TGI in the assay on M14 melanoma, in the assay with NCI-H522 lung, with RPMI-8226 leukemia and with UACC-257 melanoma was more than 25 µM in each case.

For `COC(=O)[C@@]12OC[C@]34[C@H]([C@@H](O)[C@@H]1O)[C@@]1(C)[C@H](O)C(=O)C=C(C)[C@@H]1C[C@H]3OC(=O)C(OC(C)=O)[C@@H]24` (stereo partly drawn), the GI50 in the assay with A549 NSCLC was 0.0381 µM; in the assay on BT-549 breast it was 0.0182 µM; in the assay with EKVX NSCLC, 0.0529 µM; in the assay with HCC-2998 colon, 0.0168 µM; with HCT-116 colon, 0.022 µM; in the assay on HL-60(TB) leukemia, 0.0119 µM. In addition, the GI50 in the assay on M14 melanoma was 0.0261 µM; with NCI-H522 lung it was less than 0.0111 µM; with RPMI-8226 leukemia, 0.017 µM; in the assay with UACC-257 melanoma it was 0.0668 µM. Moreover, the concentration for total growth inhibition (TGI) in the assay on A549 NSCLC was 0.294 µM; in the assay with BT-549 breast, 0.0561 µM; with EKVX NSCLC it was 0.372 µM; in the assay on HCC-2998 colon it was 0.111 µM; with HCT-116 colon, 0.0503 µM; with HL-60(TB) leukemia it was 0.0315 µM. The TGI with M14 melanoma was 0.0785 µM; in the assay with NCI-H522 lung, 0.041 µM; with RPMI-8226 leukemia, 0.0396 µM; with UACC-257 melanoma, 0.428 µM.

For `COc1cc2c3c(n(CCCCN)c(=O)c2cc1OC)-c1cc2c(cc1C3=O)OCO2`, the GI50 with A549 NSCLC was 1.06 µM; in the assay with BT-549 breast, 1.17 µM; with EKVX NSCLC, 0.744 µM; with HCC-2998 colon, 0.659 µM; in the assay on HCT-116 colon, 0.234 µM; in the assay on HL-60(TB) leukemia, 1.88 µM. Moreover, the GI50 with M14 melanoma was 1.36 µM; with NCI-H522 lung it was 0.259 µM; with RPMI-8226 leukemia, 0.351 µM; in the assay with UACC-257 melanoma it was 3.35 µM. Further, the TGI in the assay with A549 NSCLC is 11.9 µM; in the assay on BT-549 breast, 4.84 µM; in the assay with EKVX NSCLC, 3.57 µM; in the assay on HCC-2998 colon it was 2.26 µM; in the assay with HCT-116 colon, 0.797 µM; with HL-60(TB) leukemia, 15.4 µM. Besides, the TGI with M14 melanoma was 6.22 µM; in the assay on NCI-H522 lung, 9.89 µM; in the assay on RPMI-8226 leukemia, 1.31 µM; in the assay on UACC-257 melanoma, 25 µM.

`COc1cc(NC(C)CCCN)c2ncccc2c1` (stereo not drawn): the TGI with A549 NSCLC was more than 100 µM; in the assay on BT-549 breast, more than 100 µM; in the assay with EKVX NSCLC it was more than 100 µM; in the assay with HCC-2998 colon, 31.6 µM and 58.5 µM; with HCT-116 colon, more than 100 µM; in the assay with HL-60(TB) leukemia, > 37.3 µM and 28.9 µM. Besides, the TGI in the assay on M14 melanoma was 34.5 µM and > 73.6 µM; in the assay on NCI-H522 lung, more than 100 µM; in the assay with RPMI-8226 leukemia, more than 100 µM; with UACC-257 melanoma, 27.2 µM and 54.5 µM. Further, the GI50 in the assay on HCT-116 colon was 34.6 µM and 75.8 µM; with M14 melanoma, 16.8 µM and 43.1 µM; in the assay with UACC-257 melanoma, 11.3 µM and 30.2 µM.

The record behind these values is PubChem BioAssay (NCI).
